Type in all cases: functional
The subject of assay [1] is Klebsiella pneumoniae. The assay is described as follows: Antibacterial activity against VIM1 carbapenemase producing multidrug-resistant Klebsiella pneumoniae GR54 clinical isolate by broth microtiter dilution method.
Assay [2] relates to Klebsiella pneumoniae. The assay can be described thus: Antibacterial activity against VIM1 carbapenemase producing multidrug-resistant Klebsiella pneumoniae 177 clinical isolate by broth microtiter dilution method.
Assay [3] has as its system Providencia stuartii. The assay can be described thus: Antibacterial activity against VIM1 carbapenemase producing multidrug-resistant Providencia stuartii 67 clinical isolate by broth microtiter dilution method.
The test system of assay [4] is Providencia stuartii. The assay can be described thus: Antibacterial activity against VIM1 carbapenemase producing multidrug-resistant Providencia stuartii 70 clinical isolate by broth microtiter dilution method.
Assay [5] relates to Pseudomonas aeruginosa. The assay can be described thus: Antibacterial activity against VIM2 carbapenemase producing multidrug-resistant Pseudomonas aeruginosa 47 clinical isolate by broth microtiter dilution method.
Assay [6] deals with Pseudomonas aeruginosa. The assay is described as follows: Antibacterial activity against VIM2 carbapenemase producing multidrug-resistant Pseudomonas aeruginosa 50 clinical isolate by broth microtiter dilution method.
The test system of assay [7] is Pseudomonas aeruginosa. The assay can be described thus: Antibacterial activity against VIM2 carbapenemase producing multidrug-resistant Pseudomonas aeruginosa GR57 clinical isolate by broth microtiter dilution method.
For assay [8], the system named is Pseudomonas aeruginosa. The assay can be described thus: Antibacterial activity against VIM2 carbapenemase producing multidrug-resistant Pseudomonas aeruginosa GR58 clinical isolate by broth microtiter dilution method.
In assay [9] the test system is Pseudomonas aeruginosa. The assay is described as follows: Antibacterial activity against VIM2 carbapenemase producing multidrug-resistant Pseudomonas aeruginosa GR64 clinical isolate by broth microtiter dilution method.
For assay [10], the system named is Pseudomonas aeruginosa. The assay is described as follows: Antibacterial activity against VIM2 carbapenemase producing multidrug-resistant Pseudomonas aeruginosa 8 clinical isolate by broth microtiter dilution method.
In assay [11] the test system is Pseudomonas aeruginosa. The assay can be described thus: Antibacterial activity against VIM2 carbapenemase producing multidrug-resistant Pseudomonas aeruginosa 9 clinical isolate by broth microtiter dilution method.
In assay [12] the test system is Klebsiella pneumoniae. The assay is described as follows: Antibacterial activity against VIM4 carbapenemase producing multidrug-resistant Klebsiella pneumoniae 128 clinical isolate by broth microtiter dilution method.
Assay [13] deals with Klebsiella pneumoniae. The assay is described as follows: Antibacterial activity against VIM4 carbapenemase producing multidrug-resistant Klebsiella pneumoniae 101 clinical isolate by broth microtiter dilution method.
The test system of another assay is Enterobacter cloacae. The assay can be described thus: Antibacterial activity against VIM4 carbapenemase producing multidrug-resistant Enterobacter cloacae 102 clinical isolate by broth microtiter dilution method.
The subject of assay [14] is Klebsiella oxytoca. The assay can be described thus: Antibacterial activity against VIM4 carbapenemase producing multidrug-resistant Klebsiella oxytoca 126 clinical isolate by broth microtiter dilution method.
Assay [15] deals with Klebsiella oxytoca. The assay is described as follows: Antibacterial activity against VIM4 carbapenemase producing multidrug-resistant Klebsiella oxytoca 95 clinical isolate by broth microtiter dilution method.
Assay [16] concerns Pseudomonas aeruginosa. The assay is described as follows: Antibacterial activity against VIM2 carbapenemase producing multidrug-resistant Pseudomonas aeruginosa 11 clinical isolate by broth microtiter dilution method.
For assay [17], the system named is Pseudomonas aeruginosa. The assay can be described thus: Antibacterial activity against VIM2 carbapenemase producing multidrug-resistant Pseudomonas aeruginosa 6 clinical isolate by broth microtiter dilution method.
For assay [18], the system named is Pseudomonas aeruginosa. The assay can be described thus: Antibacterial activity against VIM2 carbapenemase producing multidrug-resistant Pseudomonas aeruginosa 12 clinical isolate by broth microtiter dilution method.
The subject of assay [19] is Pseudomonas aeruginosa. The assay can be described thus: Antibacterial activity against VIM2 carbapenemase producing multidrug-resistant Pseudomonas aeruginosa 13 clinical isolate by broth microtiter dilution method.
The test system of assay [20] is Pseudomonas aeruginosa. The assay is described as follows: Antibacterial activity against VIM2 carbapenemase producing multidrug-resistant Pseudomonas aeruginosa GR57 clinical isolate infected in Galleria mellonella larvae assessed as survival rate at 0.6 mg/kg measured at 96 hrs. The settings on record: GR57, 96 h.
A further assay relates to Escherichia coli. The assay can be described thus: Antibacterial activity against VIM4 carbapenemase producing multidrug-resistant Escherichia coli 98 clinical isolate infected in Galleria mellonella larvae assessed as survival rate at 0.6 mg/kg measured at 96 hrs. Conditions: Escherichia coli, 98, 96 h.
Assay [21] relates to Klebsiella pneumoniae. The assay can be described thus: Antibacterial activity against VIM4 carbapenemase producing multidrug-resistant Klebsiella pneumoniae 120 clinical isolate infected in Galleria mellonella larvae assessed as survival rate at 0.6 mg/kg measured at 96 hrs. Conditions: Klebsiella pneumoniae, 120, 96 h.
The subject of assay [22] is Pseudomonas aeruginosa. The assay is described as follows: Antibacterial activity against VIM2 carbapenemase producing multidrug-resistant Pseudomonas aeruginosa GR62 clinical isolate by broth microtiter dilution method.

The results in this text go back to ChEMBL document CHEMBL3792311, “In vitro and in vivo activity of ML302F: a thioenolate inhibitor of VIM-subfamily metallo -lactamases” (Medchemcomm, 2016).

As a reminder, the MIC is the least concentration at which growth counts as inhibited. A higher MIC goes with weaker potency.

In brackets after ≈: the same amount, converted by molar mass.

As for `C[C@@H](O)[C@H]1C(=O)N2C(C(=O)O)=C(S[C@@H]3CN[C@H](C(=O)N(C)C)C3)[C@H](C)[C@H]12` [MEROPENEM], the MIC was found to be 128 µg/mL (≈ 334 µM) against Klebsiella pneumoniae [1]; 1 µg/mL (≈ 2.61 µM) against Klebsiella pneumoniae [2]; 8 µg/mL (≈ 20.9 µM) against Providencia stuartii [3]; 8 µg/mL (≈ 20.9 µM) in the assay on Providencia stuartii [4]; 32 µg/mL (≈ 83.4 µM) with Pseudomonas aeruginosa [5]; 32 µg/mL (≈ 83.4 µM) against Pseudomonas aeruginosa [6]. In addition, the minimal inhibitory concentration (MIC) with Pseudomonas aeruginosa [7] came to 32 µg/mL (≈ 83.4 µM); against Pseudomonas aeruginosa [8], 32 µg/mL (≈ 83.4 µM); with Pseudomonas aeruginosa [9] it was 32 µg/mL (≈ 83.4 µM); with Pseudomonas aeruginosa [10], 128 µg/mL (≈ 334 µM); in the assay on Pseudomonas aeruginosa [11], 128 µg/mL (≈ 334 µM); in the assay with Klebsiella pneumoniae [12] it was 4 µg/mL (≈ 10.4 µM). Besides, the MIC was 32 µg/mL (≈ 83.4 µM) in the assay with Klebsiella pneumoniae [13]; 32 µg/mL (≈ 83.4 µM) in the assay on Enterobacter cloacae; 32 µg/mL (≈ 83.4 µM) against Klebsiella oxytoca [14]; 32 µg/mL (≈ 83.4 µM) against Klebsiella oxytoca [15]; 32 µg/mL (≈ 83.4 µM) against Pseudomonas aeruginosa [16]; 128 µg/mL (≈ 334 µM) with Pseudomonas aeruginosa [17]. Moreover, the figures for the MIC in the assay on Pseudomonas aeruginosa [18], in the assay on Pseudomonas aeruginosa [19] and in the assay with Pseudomonas aeruginosa [22] were 128 µg/mL (≈ 334 µM), 32 µg/mL (≈ 83.4 µM) and 32 µg/mL (≈ 83.4 µM), respectively. Moreover, the survival at 0.6 mg/kg stood at 23% in the assay with Pseudomonas aeruginosa [20], 44% in the assay on Escherichia coli and 69% with Klebsiella pneumoniae [21].
